Experimental data: article PMC5071164 (Biochimica et biophysica acta, 2016)
Where two headings read alike, the source gives them in different places.

Key:
[1] = biological target: T1, Farnesoid X receptor (FXR) ligand binding domain (Homo sapiens, UniProt Q96RI1); assay: Intrinsic tryptophan fluorescence quenching titration
T1 sequence (Q96RI1 203-486): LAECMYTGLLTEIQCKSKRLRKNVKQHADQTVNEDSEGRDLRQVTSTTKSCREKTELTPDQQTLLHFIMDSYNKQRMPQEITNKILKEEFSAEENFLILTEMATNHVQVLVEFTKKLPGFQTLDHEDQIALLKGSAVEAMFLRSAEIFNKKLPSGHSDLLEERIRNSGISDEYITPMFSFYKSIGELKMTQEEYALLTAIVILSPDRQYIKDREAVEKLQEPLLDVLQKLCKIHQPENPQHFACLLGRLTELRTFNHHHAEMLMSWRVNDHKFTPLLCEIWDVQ

[2] = biological target: T1, Farnesoid X receptor (FXR) ligand binding domain; assay: as above; remark: listed apart in the source

Kd [2] [nM] | Structure (SMILES) | Kd [1] [nM]
– | CC(C)=CCc1c(O)cc(O)c2c1O[C@H](c1ccc(O)cc1)CC2=O [8-PN, 8-prenylnaringenin] | 2200 ± 50
– | COc1cc(O)c(CC=C(C)C)c2c1C(=O)CC(c1ccc(O)cc1)O2 (stereo not drawn) [IX, isoxanthohumol] | 5920 ± 250
2680 ± 110 | COc1cc(O)c(CC=C(C)C)c(O)c1C(=O)/C=C/c1ccc(O)cc1 [XN, xanthohumol] | –
